Read-outs that look alike come from different tables or passages of the source.
Experiments:
[1] = system: many species of blood-sucking arthropods; details: field and laboratory studies, literature, cited from earlier work
[2] = system: Aedes aegypti (Linnaeus); test: Repellent bioassay on human skin, K & D modules, biting frequency of Aedes aegypti; format: in vivo; details: for repellent activity, comparison in words: pair-wise comparison alpha=0.05
[3] = system: Anopheles stephensi; test: Repellent bioassay on human skin, K & D modules, Anopheles stephensi; format: in vivo
[4] = system: Phlebotomus papatasi; test: Repellent bioassay on human skin, K & D modules, Phlebotomus papatasi; format: in vivo
[5] = system: Aedes albopictus; test: Repellent bioassay on human skin, K & D modules, Aedes albopictus; format: in vivo

In the case of `CC1CCCCN1C(=O)C1CC=CCC1` (racemic) [compound 220, 1-(3-cyclohexen-1-ylcarbonyl)-2-methylpiperidine, reference compound], the “effectiveness in reducing bites compared with deet” value [1] is given as “more or as effective as the commonly used arthropod repellent deet”, the “effectiveness in reducing bites compared with deet” value ([1]; listed as 220 racemate) is given as “more effective than deet” and the proportion biting value ([2]; Ae. aegypti females on treated human skin, 4.95 μg/cm^2 skin, 2 min exposure) is given as 0.45. The “repellent activity, comparison in words” value ([2]; Ae. aegypti, 4.95 μg/cm^2 skin) was “not significantly different from one another”.
In the case of `C[C@H]1CCCCN1C(=O)[C@@H]1CC=CCC1` (single isomer, unassigned) [(1S,2′S)], the “repellent effectiveness, comparison in words” value (“repellent effectiveness” for short) [3] is reported as “most effective in repelling bites”, the “repellent effectiveness” value [4] is reported as “most effective in repelling bites” and the “times more effective in suppressing bites than the racemate” value [5] is reported as 4 times. For the same compound, the “times more repellent than the other stereoisomers” value ([2]; Ae. aegypti, 4.95 μg/cm^2 skin) was 2.8-3.1 times and the “times more effective in suppressing bites than the racemate” value ([2]; Ae. aegypti, equal dose) was 2.5 times.
For `CC1CCCCN1C(=O)C1CC=CCC1` [(1R,2′R), 1-(3-cyclohexen-1-ylcarbonyl)-2-methylpiperidine], the “repellent activity, comparison in words” value ([2]; Ae. aegypti, 4.95 μg/cm^2 skin, listed as (1R,2′R)-220) was “significantly less effective as a repellent”.
For `CC1CCCCN1C(=O)C1CC=CCC1` [(1R,2′S), 1-(3-cyclohexen-1-ylcarbonyl)-2-methylpiperidine], the “repellent effectiveness” value [5] was “more effective than the (1S,2′R) and (1R,2′R) stereoisomers” and the “times more repellent than the other stereoisomers” value ([2]; Ae. aegypti, 4.95 μg/cm^2 skin) was 1.6-1.8 times.
In the case of `CC1CCCCN1C(=O)C1CC=CCC1` [(1S,2′R), 1-(3-cyclohexen-1-ylcarbonyl)-2-methylpiperidine], the “repellent activity, comparison in words” value ([2]; Ae. aegypti, 4.95 μg/cm^2 skin) is reported as “not significantly different from one another”.

Source: US6562841B1, “Methods and compositions for repelling arthropods” (The United States of America as represented by the …, priority 2000, dated 2003)
